In PubChem BioAssay (NCI):
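Where inhibition never reached the appropriate level, the endpoint shown equals the highest concentration tested. Otherwise, values were interpolated linearly from a five-concentration, 48-hour dose response in 96-well plates. Here, GI50 denotes the concentration required for 50% inhibition of growth. TGI: total growth inhibition.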

Columns and labels:
Test in all cases: NCI tumour cell line growth inhibition, 48 h
[1] = system: NCI-H460 lung
[2] = system: SF-295 CNS
[3] = system: NCI-H226 lung
[4] = system: EKVX NSCLC
[5] = system: HCC-2998 colon
[6] = system: UACC-257 melanoma
[7] = system: U251 CNS
[8] = system: HCT-116 colon
[9] = system: NCI-H522 lung
[10] = system: PC-3 prostate

Row | SMILES | TGI [1] [µM] | TGI [2] [µM] | TGI [3] [µM] | TGI [4] [µM] | TGI [5] [µM] | TGI [6] [µM] | TGI [7] [µM] | TGI [8] [µM] | TGI [9] [µM] | GI50 [1] [µM] | GI50 [2] [µM] | GI50 [3] [µM] | GI50 [4] [µM] | GI50 [6] [µM] | GI50 [7] [µM] | GI50 [10] [µM] | TGI [10] [µM] | GI50 [8] [µM] | GI50 [9] [µM]
1 | O=C1NC(Cc2ccc(O)cc2)C(=O)N2CCCC12 (configuration not stated) | > 100 | > 100 | > 100 | > 100 | > 100 | > 100 | > 100 | > 100 | > 100 | – | – | – | – | – | – | – | – | – | –
2 | CC1=Nc2ccccc2S/C1=C(/C)NNS(=O)(=O)c1ccc(C)cc1 | > 100 | > 100 | > 100 | > 100 | > 100 | > 100 | > 100 | > 100 | > 100 | – | – | – | – | – | – | – | – | – | –
3 | N#Cc1cccc2c1Nc1ccccc1S2 | > 100 | > 100 | > 100 | > 100 | > 100 | > 100 | > 100 | > 100 | > 100 | – | – | – | – | – | – | – | – | – | –
4 | Cc1cc(S(=O)(=O)Nc2nc3ccccc3o2)c(SCc2ccccc2)cc1Cl | 52.2 | 57 | 72.9 | 55.8 | – | 50.2 | 31 | 33.4 | > 100 | 15.5 | 19.2 | 26.4 | 21.9 | 21.2 | 16.1 | 16.1 | 30.5 | 13.8 | > 100
5 | C[C@@H](NC1CCCC[C@H]1O)c1ccccc1 (some centres not stated) | > 100 | > 100 | > 100 | > 100 | > 100 | > 100 | > 100 | > 100 | > 100 | – | – | – | – | – | – | – | – | – | –
6 | O=C(NCCCCCCCCCCCCNC(=O)c1cccc2ccccc12)c1cccc2ccccc12 | > 100 | > 83 | > 82.2 | > 100 | > 100 | > 100 | > 59.5 | > 100 | > 100 | – | – | – | – | – | – | – | – | – | –
7 | C/C(=C1/N=C(c2cc([N+](=O)[O-])ccc2Cl)N(c2cccc(C)c2)C1=O)c1cc2ccccc2oc1=O | > 100 | > 100 | > 100 | > 100 | > 100 | 77.3 | – | > 100 | > 100 | – | – | – | – | – | – | – | – | – | –
8 | COc1cc(Nc2nc3cc(N)cc(N)c3nc2-c2ccccc2)cc(OC)c1OC | 52.8 | 42.8 | – | 47.4 | – | > 100 | > 100 | 34.1 | 53.1 | 17.1 | 16 | – | 17.6 | 29.6 | 24.6 | 14.2 | 59.3 | 15.4 | 18.2
